Measured values: US20110190280A1, “Thiazole And Oxazole Kinase Inhibitors” (priority 2007, published 2011)
Counter-ions that a name gives are not always drawn.

Columns and labels:
SK-MEL-3 tumor cells = assay: Cell growth inhibition assay (CellTiter-Glo), SK-MEL-3; conditions: Homo sapiens, SK-MEL3, 72 h, read-out: Activity in SK-MEL-3 Tumor Cells;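 also: human melanoma cells grown with compound for 3 days in 0.2% DMSO, total ATP read by luminescence as proxy for cell number, growth inhibition versus DMSO-treated wells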
Procedure: Cell Growth Inhibition Assays Human colon tumor cells (Colo205) were cultured in RPMI (Mediatech 50-020-PB) containing 10% FBS and 1% penicillin-streptomycin. […] Human melanoma cancer cells (A375-F11S) were cultured in RPMI (Mediatech 50-020-PB) containing 10% FBS, 1% sodium pyruvate, and 1% penicillin-streptomycin. Human colon cancer cells (HT-29) were cultured in high glucose DMEM (Mediatech 50-013-PB) containing 10% FBS and 1% penicillin-streptomycin. Human melanoma cancer cells (SK-MEL-3) were cultured in McCoy's 5A (50-025-PB) containing 15% FBS, and 1% penicillin-streptomycin. All cell lines were maintained at 37° C. in a humidified 5% CO2, 95% air incubator.
The next day, compounds were diluted as follows: For 96-well assays, 13.5 μl of compound in DMSO were diluted using nine (9) serial 1:3 dilutions of 4.5 μl in 9 μl of DMSO. Medium (270 μl/well of RPMI with 10% FBS and 1% penicillin-streptomycin) was added to the plates. Aliquots (7 μl) were added to cells in the final assay giving a final DMSO concentration of 0.2%. For 384-well assays, 15 μl of compound in DMSO were diluted using nine (9) serial 1:3 dilutions of 5 μl in 10 μl of DMSO, followed by a further dilution of 5 μl of compound with 95 μl of medium, of which 2 μl are added to cells in the final assay giving a final DMSO concentration of 0.2%. Cells were incubated at 37° C., 5% CO2 for 3 days.
Total ATP was measured (as a surrogate estimate of cell number) using CellTiter-Glo® (Promega G7571) reagent. Briefly, plates were removed from the incubator and allowed to equilibrate to room temperature for 30 minutes. CellTiter-Glo® (25 μl or 55 μl for 384-well or 96-well assays, respectively) reagent was added to each well and plates were shaken on an orbital plate shaker for 2 minutes. Plates were incubated without shaking for a further 30 minutes and read on an LJL Analyst GT reader in luminometer mode with an integration time of 0.5 seconds per well. Percent inhibition of cell growth was calculated relative to DMSO vehicle-treated control wells.

B-Raf = B-Raf (Homo sapiens, UniProt P15056); assay: B-Raf Accelerated MEK ATPase assay (BRAMA); format: biochemical; conditions: BRAMA enzyme assay; class by pIC50; read-out: B-Raf Activity
Chain of B-Raf (P15056 whole entry): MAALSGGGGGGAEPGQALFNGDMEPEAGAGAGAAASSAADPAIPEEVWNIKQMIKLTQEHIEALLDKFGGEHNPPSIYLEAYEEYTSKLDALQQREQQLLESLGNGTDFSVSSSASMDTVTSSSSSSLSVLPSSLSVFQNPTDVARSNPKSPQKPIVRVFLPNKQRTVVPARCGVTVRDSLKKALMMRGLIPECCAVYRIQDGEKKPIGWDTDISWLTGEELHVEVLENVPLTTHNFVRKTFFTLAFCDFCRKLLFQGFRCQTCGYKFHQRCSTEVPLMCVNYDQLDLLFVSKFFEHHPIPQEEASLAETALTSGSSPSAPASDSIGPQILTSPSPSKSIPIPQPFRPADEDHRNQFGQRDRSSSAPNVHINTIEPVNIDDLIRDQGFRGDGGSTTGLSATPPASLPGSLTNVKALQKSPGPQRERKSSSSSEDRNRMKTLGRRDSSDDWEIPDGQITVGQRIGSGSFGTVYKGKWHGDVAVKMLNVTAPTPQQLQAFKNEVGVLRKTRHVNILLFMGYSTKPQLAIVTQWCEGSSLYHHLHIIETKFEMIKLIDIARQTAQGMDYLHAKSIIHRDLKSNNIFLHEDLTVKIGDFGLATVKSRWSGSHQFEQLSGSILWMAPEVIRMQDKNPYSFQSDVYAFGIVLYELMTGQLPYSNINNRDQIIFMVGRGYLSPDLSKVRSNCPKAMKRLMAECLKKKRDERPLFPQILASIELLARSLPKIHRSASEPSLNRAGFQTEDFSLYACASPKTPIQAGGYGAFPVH
Procedure: Compounds of the present invention were tested for B-Raf […] inhibitory activity in a B-Raf Accelerated MEK ATPase assay (BRAMA). The BRAMA assay is a high sensitivity assay which measures an intrinsic MEK-mediated ATP hydrolysis uncoupled from downstream ERK phosphorylation by coupling the formation of ADP to NADH oxidation through the enzymes pyruvate kinase and lactate dehydrogenase. When ADP production is initiated by addition of catalytic amounts of an activated RAF enzyme and non-phosphorylated MEK, one observes robust ADP production concomitant with RAF-mediated phosphorylation of MEK. Specific details of the assay are disclosed in: C. Rominger, M. Schaber, E. May. Assay for B-Raf Activity Based on Intrinsic MEK ATPase Activity.

A375P tumor cells = assay: Cell growth inhibition assay (CellTiter-Glo), A375P; conditions: Homo sapiens, 72 h, read-out: Activity in A375P Tumor Cells;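 also: total ATP luminescence used as proxy for cell number, serial threefold compound dilutions at 0.2% DMSO, growth inhibition expressed versus DMSO vehicle-treated wells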
SK-MEL-28 tumor cells = assay: Cell growth inhibition assay (CellTiter-Glo), SK-MEL-28; conditions: Homo sapiens, SK-MEL-28, 72 h, read-out: Activity in SK-MEL-28 Tumor Cells;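 also: luminescent total ATP as a proxy for cell number, threefold serial dilutions at 0.2% DMSO, percent growth inhibition versus DMSO vehicle control wells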
HT-29 tumor cells = assay: Cell growth inhibition assay (CellTiter-Glo), HT-29; conditions: Homo sapiens, HT-29, 72 h, read-out: Activity in HT-29 Tumor Cells;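 also: ATP content read by luminescence as proxy for cell number, growth inhibition versus DMSO vehicle wells, 0.2% DMSO final, nine serial threefold compound dilutions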
Colo205 tumor cells = assay: Cell growth inhibition assay (CellTiter-Glo), Colo205; conditions: Homo sapiens, COLO 205, 72 h, read-out: Activity in Colo205 Tumor Cells;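 also: growth measured via total ATP luminescence (CellTiter-Glo) as a proxy for cell number, inhibition expressed against DMSO-treated control wells, 3-day exposure at 0.2% final DMSO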

IC50 (SK-MEL-3 tumor cells)	IC50 (B-Raf)	IC50 (A375P tumor cells)	IC50 (SK-MEL-28 tumor cells)	IC50 (HT-29 tumor cells)	IC50 (Colo205 tumor cells)	SMILES
< 500 nM	< 100 nM	< 500 nM	500 to 5000 nM	< 500 nM	500 to 5000 nM	COc1cc(OC)cc(-c2nc(NCCF)sc2-c2ccnc(Nc3ccc(OCCN4CCCC4)c(Cl)c3)n2)c1 [Example 21, 4-{4-[3,5-Bis(methyloxy)phenyl]-2-[(2-fluoroethyl)amino]-1,3-thiazol-5-yl}-N-(3-chloro-4-{[2-(1-pyrrolidinyl)ethyl]oxy}phenyl)-2-pyrimidinamine]
< 500 nM	< 100 nM	< 500 nM	< 500 nM	< 500 nM	< 500 nM	COc1cc(OC)cc(-c2nc(NC3CCC3)sc2-c2ccnc(Nc3ccc(OC4CCN(CCS(C)(=O)=O)CC4)c(F)c3)n2)c1 [Example 22, 4-[4-[3,5-Bis(methyloxy)phenyl]-2-(cyclobutylamino)-1,3-thiazol-5-yl]-N-[3-fluoro-4-({1-[2-(methylsulfonyl)ethyl]-4-piperidinyl}oxy)phenyl]-2-pyrimidinamine]
< 500 nM	< 100 nM	500 to 5000 nM	500 to 5000 nM	< 500 nM	500 to 5000 nM	COc1cc(OC)cc(-c2nc(Nc3ccccc3)sc2-c2ccnc(Nc3ccc(OC4CCN(CCS(C)(=O)=O)CC4)c(F)c3)n2)c1 [Example 23, 4-[4-[3,5-Bis(methyloxy)phenyl]-2-(phenylamino)-1,3-thiazol-5-yl]-N-[3-fluoro-4-({1-[2-(methylsulfonyl)ethyl]-4-piperidinyl}oxy)phenyl]-2-pyrimidinamine hydrochloride]
< 500 nM	< 100 nM	< 500 nM	500 to 5000 nM	< 500 nM	500 to 5000 nM	CCNc1nc(-c2cc(C)cc(OC)c2)c(-c2ccnc(Nc3ccc(N4CCOCC4)c(C(F)(F)F)c3)n2)s1 [Example 25, 4-{2-(Ethylamino)-4-[3-methyl-5-(methyloxy)phenyl]-1,3-thiazol-5-yl}-N-[4-(4-morpholinyl)-3-(trifluoromethyl)phenyl]-2-pyrimidinamine]
< 500 nM	< 100 nM	< 500 nM	< 500 nM	< 500 nM	< 500 nM	CCNc1nc(-c2cc(C)cc(OC)c2)c(-c2ccnc(Nc3ccc(N4CCN(C)CC4)c(Cl)c3)n2)s1 [Example 31, N-[3-Chloro-4-(4-methyl-1-piperazinyl)phenyl]-4-{2-(ethylamino)-4-[3-methyl-5-(methyloxy)phenyl]-1,3-thiazol-5-yl}-2-pyrimidinamine]
< 500 nM	< 100 nM	< 500 nM	< 500 nM	< 500 nM	< 500 nM	CCNc1nc(-c2cc(C)cc(OC)c2)c(-c2ccnc(Nc3ccc(OC4CCN(CCS(C)(=O)=O)CC4)c(F)c3)n2)s1 [Example 32, 4-{2-(Ethylamino)-4-[3-methyl-5-(methyloxy)phenyl]-1,3-thiazol-5-yl}-N-[3-fluoro-4-({1-[2-(methylsulfonyl)ethyl]-4-piperidinyl}oxy)phenyl]-2-pyrimidinamine]
< 500 nM	< 100 nM	< 500 nM	< 500 nM	< 500 nM	< 500 nM	CCNc1nc(-c2cc(C)cc(OC)c2)c(-c2ccnc(Nc3ccc(N4CCN(C)CC4)c(OC)c3)n2)s1 [Example 33, 4-{2-(Ethylamino)-4-[3-methyl-5-(methyloxy)phenyl]-1,3-thiazol-5-yl}-N-[3-(methyloxy)-4-(4-methyl-1-piperazinyl)phenyl]-2-pyrimidinamine]
< 500 nM	< 100 nM	< 500 nM	500 to 5000 nM	< 500 nM	< 500 nM	CCNc1nc(-c2cc(C)cc(OC)c2)c(-c2ccnc(Nc3ccc(OCCOC)c(F)c3)n2)s1 [Example 38, 4-{2-(Ethylamino)-4-[3-methyl-5-(methyloxy)phenyl]-1,3-thiazol-5-yl}-N-(3-fluoro-4-{[2-(methyloxy)ethyl]oxy}phenyl)-2-pyrimidinamine]
< 500 nM	< 100 nM	< 500 nM	500 to 5000 nM	< 500 nM	< 500 nM	CCNc1nc(-c2cccc(OC)c2)c(-c2ccnc(Nc3ccc(N4CCOCC4)nc3)n2)s1 [Example 42, 4-{2-(Ethylamino)-4-[3-(methyloxy)phenyl]-1,3-thiazol-5-yl}-N-[6-(4-morpholinyl)-3-pyridinyl]-2-pyrimidinamine]
500 to 5000 nM	< 100 nM	500 to 5000 nM	500 to 5000 nM	< 500 nM	500 to 5000 nM	CCNc1nc(-c2cccc(N(C)C)c2)c(-c2ccnc(Nc3ccc(OCCN4CCCC4)c(Cl)c3)n2)s1 [Example 45, N-(3-Chloro-4-{[2-(1-pyrrolidinyl)ethyl]oxy}phenyl)-4-[4-[3-(dimethylamino)phenyl]-2-(ethylamino)-1,3-thiazol-5-yl]-2-pyrimidinamine]
< 500 nM	< 100 nM	< 500 nM	> 5000 nM	< 500 nM	500 to 5000 nM	CCNc1nc(-c2cccc(N(C)C)c2)c(-c2ccnc(Nc3ccc(N4CCOCC4)nc3)n2)s1 [Example 47, 4-[4-[3-(Dimethylamino)phenyl]-2-(ethylamino)-1,3-thiazol-5-yl]-N-[6-(4-morpholinyl)-3-pyridinyl]-2-pyrimidinamine]
< 500 nM	< 100 nM	< 500 nM	500 to 5000 nM	< 500 nM	500 to 5000 nM	CCNc1nc(-c2ccc(Cl)c(OC)c2)c(-c2ccnc(Nc3ccc(OCCN4CCCC4)c(Cl)c3)n2)s1 [Example 49, 4-[4-[4-Chloro-3-(methyloxy)phenyl]-2-(ethylamino)-1,3-thiazol-5-yl]-N-(3-chloro-4-{[2-(1-pyrrolidinyl)ethyl]oxy}phenyl)-2-pyrimidinamine]
< 500 nM	< 100 nM	500 to 5000 nM	500 to 5000 nM	< 500 nM	< 500 nM	COc1cc(-c2nc(NC3CC3)sc2-c2ccnc(Nc3ccc(OCCN4CCCC4)c(Cl)c3)n2)ccc1Cl [Example 51, 4-[4-[4-Chloro-3-(methyloxy)phenyl]-2-(cyclopropylamino)-1,3-thiazol-5-yl]-N-(3-chloro-4-{[2-(1-pyrrolidinyl)ethyl]oxy}phenyl)-2-pyrimidinamine]
< 500 nM	< 100 nM	< 500 nM	< 500 nM	< 500 nM	< 500 nM	CCNc1nc(-c2ccc3c(c2)OCO3)c(-c2ccnc(Nc3ccc(OC4CCN(CCS(C)(=O)=O)CC4)c(F)c3)n2)s1 [Example 52, 4-[4-(1,3-Benzodioxol-5-yl)-2-(ethylamino)-1,3-thiazol-5-yl]-N-[3-fluoro-4-({1-[2-(methylsulfonyl)ethyl]-4-piperidinyl}oxy)phenyl]-2-pyrimidinamine]
< 500 nM	< 100 nM	< 500 nM	500 to 5000 nM	< 500 nM	< 500 nM	CCNc1nc(-c2ccc3c(c2)OCO3)c(-c2ccnc(Nc3ccc(N4CCN(C(C)=O)CC4)nc3)n2)s1 [Example 53, N-[6-(4-Acetyl-1-piperazinyl)-3-pyridinyl]-4-[4-(1,3-benzodioxol-5-yl)-2-(ethylamino)-1,3-thiazol-5-yl]-2-pyrimidinamine]
< 500 nM	< 100 nM	500 to 5000 nM	500 to 5000 nM	< 500 nM	< 500 nM	CCNc1nc(-c2ccc(Cl)c(C)c2)c(-c2ccnc(Nc3ccc(OCCN4CCCC4)c(Cl)c3)n2)s1 [Example 54, 4-[4-(4-Chloro-3-methylphenyl)-2-(ethylamino)-1,3-thiazol-5-yl]-N-(3-chloro-4-{[2-(1-pyrrolidinyl)ethyl]oxy}phenyl)-2-pyrimidinamine]
< 500 nM	< 100 nM	< 500 nM	500 to 5000 nM	< 500 nM	< 500 nM	CCNc1nc(-c2cc(OC)ccc2F)c(-c2ccnc(Nc3ccc(N4CCN(C)CC4)c(F)c3)n2)s1 [Example 56, 4-{2-(Ethylamino)-4-[2-fluoro-5-(methyloxy)phenyl]-1,3-thiazol-5-yl}-N-[3-fluoro-4-(4-methyl-1-piperazinyl)phenyl]-2-pyrimidinamine]
< 500 nM	< 100 nM	< 500 nM	500 to 5000 nM	< 500 nM	500 to 5000 nM	CCNc1nc(-c2cc(OC)ccn2)c(-c2ccnc(Nc3ccc(OCCN4CCCC4)c(Cl)c3)n2)s1 [Example 57, N-(3-Chloro-4-{[2-(1-pyrrolidinyl)ethyl]oxy}phenyl)-4-{2-(ethylamino)-4-[4-(methyloxy)-2-pyridinyl]-1,3-thiazol-5-yl}-2-pyrimidinamine]
